The record followed here is patent US9751842B2, “Phthalazine derivatives” (Merck Patent GmbH, priority 2013, dated 2017).

pIC50: −log10 of the molar value.

The subject of assay [1] is Tankyrase (Axin2 level in DLD1 cells). Nature of the assay: Cellular inhibition of Tankyrase, Axin2 Luminex assay in DLD1 cells. The assay is classed as cell-based. Particulars: Homo sapiens, DLD-1, 24 hours, Axin2 level increase, read-out: IC50 Cell assay. The protocol: Measurement of Cellular Inhibition of Tankyrase
Since Tankyrases have been described to modulate cellular level of Axin2 (Huang et al., 2009; Nature) the increase of Axin2 level is used as read-out for determination of cellular inhibition of Tankyrases in a Luminex based assay.
Cells of the colon carcinoma cell line DLD1 are plated in 96 well plates with 1.5×10^4 cells per well. Next day, cells are treated with a serial dilution of test compound in seven steps as triplicates with a final DMSO concentration of 0.3%. After 24 hours, cells are lysed in lysis buffer (20 mM Tris/HCl pH 8.0, 150 mM NaCl, 1% NP40, 10% Glycerol) and lysates are cleared by centrifugation through a 96 well filter plate (0.65 μm). Axin2 protein is isolated from cell lysates by incubation with a monoclonal anti-Axin2 antibody (R&D Systems #MAB6078) that is bound to fluorescent carboxybeads. Then, bound Axin2 is specifically detected with a polyclonal anti-Axin2 antibody (Cell Signaling #2151) and an appropriate PE-fluorescent secondary antibody. The amount of isolated Axin2 protein is determined in a Luminex^200 machine (Luminex Corporation) according to the manufacturer's instruction by counting 100 events per well. Inhibition of Tankyrase by test compounds results in higher levels of Axin2 which directly correlates with an increase of detectable fluorescence. As controls cells are treated with solvent alone (neutral control) and with a Tankyrase reference inhibitor IWR-2 (3E-06 M) which refers as control for maximum increase of Axin2. For analysis, the obtained data are normalized against the untreated solvent control and fitted for determination of the EC50 values using the Assay Explorer software (Accelrys).

Assay [2] addresses T1, GST-tagged Tnks-2 (873-1166 aa) (Homo sapiens, UniProt Q9H2K2).
T1 construct: GST-tagged Tnks-2 (873-1166 aa, prepared in-house); made in house
The assay can be described thus: TNKS2 activity ELISA (autoparsylation). In kind it is biochemical. To be noted: activity ELISA, 1 hour at 30° C; read-out: IC50 TNKS2 ELISA. As for the experimental part: Description of the TNKS1 and TNKS2 ELISA Assay
Biochemical Activity Testing of TNKS 1 and 2: Activity ELISA (Autoparsylation Assay)
For analysis of autoparsylation activity of TNKS 1 and 2 an activity ELISA is performed: In the first step GST tagged TNKS is captured on a Glutathione coated plate. Then the activity assay with biotinylated NAD is performed in the absence/presence of the compounds. During the enzymatic reaction GST tagged TNKS transfers biotinylated ADP-ribose to itself from biotinylated NAD as co-substrate. For the detection streptavidin-HRP conjugate is added that binds to the biotinylated TNKS and is thereby captured to the plates. The amount of biotinylated resp. autoparsylated TNKS is detected with a luminescence substrate for HRP. The level of the luminescence signal correlates directly with the amount of autoparsylated TNKS and therefore with activity of TNKS.
The activity ELISA is performed in 384 well Glutathione coated microtiter plates (Express capture Glutathione coated plate, Biocat, Heidelberg, Germany). The plates are pre-equilibrated with PBS. Then the plates are incubated with 50 μl 20 ng/well GST-tagged Tnks-1 (1023-1327 aa, prepared in-house), respectively GST-tagged Tnks-2 (873-1166 aa, prepared in-house) in assay buffer (50 mM HEPES, 4 mM Mg-chloride, 0.05% Pluronic F-68, 2 mM DTT, pH 7.7) overnight at 4° C. The plates are washed 3 times with PBS-Tween-20. The wells are blocked by incubation at room temperature for 20 minutes with 50 μl blocking buffer (PBS, 0.05% Tween-20, 0.5% BSA). Afterwards the plates are washed 3 times with PBS-Tween-20. The enzymatic reaction is performed in 50 μl reaction solution (50 mM HEPES, 4 mM Mg-chloride, 0.05% Pluronic F-68, 1.4 mM DTT, 0.5% DMSO, pH 7.7) with 10 μM bio-NAD (Biolog, Life science Inst., Bremen, Germany) as co-substrate in the absence or presence of the test compound (10 dilution concentrations) for 1 hour at 30° C. The reaction is stopped by 3 times washing with PBS-Tween-20. For the detection 50 μl of 20 ng/μl Streptavidin, HRP conjugate (MoBiTec, Göttingen, Germany) in PBS/0.05% Tween-20/0.01% BSA are added and the plates are incubated for 30 minutes at room temperature. After three times washing with PBS-Tween-20 50 μl of SuperSignal ELISA Femto Maximum sensitivity substrate solution (ThermoFisherScientific (Pierce), Bonn, Germany) are added. Following a 1 minute incubation at room temperature luminescence signals are measured with an Envision multimode reader (Perkin Elmer LAS Germany GmbH) at 700 nm. The full value used is the inhibitor-free reaction. The pharmacological zero value used is XAV-939 (Tocris) in a final concentration of 5 μM. The inhibitory values (IC50) are determined using either the program Symyx Assay Explorer® or Condosseo® from GeneData.
In general terms: ELISA stands for enzyme-linked immunosorbent assay.

T1 sequence (Q9H2K2 873-1166): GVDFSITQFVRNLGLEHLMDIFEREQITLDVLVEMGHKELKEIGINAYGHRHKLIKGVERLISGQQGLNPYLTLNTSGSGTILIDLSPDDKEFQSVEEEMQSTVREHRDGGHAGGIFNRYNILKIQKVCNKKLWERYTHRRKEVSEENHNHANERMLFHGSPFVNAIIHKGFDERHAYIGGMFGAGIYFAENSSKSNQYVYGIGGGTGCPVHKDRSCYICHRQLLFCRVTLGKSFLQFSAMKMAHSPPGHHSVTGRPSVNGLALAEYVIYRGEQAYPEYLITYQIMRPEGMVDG

By pIC50 is commonly meant the negative decadic logarithm of the IC50, by convention in mol/L. As for `O=C(Cc1ccccc1)Nc1nncc2ccccc12` [Compound A1, 2-phenyl-N-phthalazin-1-yl-acetamide], the negative logarithm of the IC50 (pIC50) in assay [1] is 4.30 to 5.52; in assay [2], 5.52 to 6.52.

On to `COc1cccc(CC(=O)Nc2nncc3ccccc23)c1` [Compound A2, 2-(3-methoxyphenyl)-N-phthalazin-1-yl-acetamide], for which the pIC50 in assay [1] was 4.30 to 5.52; in assay [2], 5.52 to 6.52.

For `COc1ccc(CC(=O)Nc2nncc3ccccc23)cc1` [Compound A3, 2-(4-methoxyphenyl)-N-phthalazin-1-yl-acetamide], the figures for the negative logarithm of the IC50 (pIC50) in assay [1] and in assay [2] were 4.30 to 5.52 and > 6.52, respectively.

With `CCOc1ccc(CC(=O)Nc2nncc3ccccc23)cc1` [Compound A4, 2-(4-ethoxyphenyl)-N-phthalazin-1-yl-acetamide], the results for the negative logarithm of the IC50 (pIC50) in assay [1] and in assay [2] were 4.30 to 5.52 and > 6.52, respectively.

With `O=C(CCC1CCCC1)Nc1nncc2ccccc12` [Compound A15, 3-cyclopentyl-N-phthalazin-1-yl-propionamide], the pIC50 in assay [1] is 4.30 to 5.52; in assay [2] it was > 6.52.

For `O=C(CCc1ccccc1Cl)Nc1nncc2ccccc12` [Compound A16, 3-(2-chloro-phenyl)-N-phthalazin-1-yl-propionamide], the pIC50 is 4.30 to 5.52 in assay [1] and > 6.52 in assay [2].

On to `Cc1cccc2cnnc(NC(=O)Cc3ccccc3)c12` [Compound A18, N-(8-methyl-phthalazin-1-yl)-2-phenyl-acetamide], for which the negative logarithm of the IC50 (pIC50) in assay [1] was 4.30 to 5.52; in assay [2], > 6.52.

Turning to `COc1ccc(CC(=O)Nc2nncc3cccc(C)c23)cc1` [Compound A20, 2-(4-methoxy-phenyl)-N-(8-methyl-phthalazin-1-yl)-acetamide], the pIC50 in assay [1] was 4.30 to 5.52; in assay [2], > 6.52.
